In US11142527B2, “Dihydropyrimidine compounds and uses thereof in medicine” (SUNSHINE LAKE PHARMA CO., LTD., priority 2017, dated 2021):

Assays:
HBV = assay: Test of anti HBV activity in vitro (viral DNA by qPCR); assay type: cell-based; conditions: Hepatitis B virus; HepG2.2.15 cells, viral DNA in cell culture supernatant by qPCR; read-out: EC50 values of the compound of the invention on viral replication
How it was run: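 HepG2.2.15 cells (integrated HBV genome) were grown to confluence, then treated with compound in 4-fold dilutions from 4 μM final (0.5% DMSO). Secreted viral DNA in supernatant was quantified by SYBR qPCR against an HBV plasmid standard curve; EC50 from four-parameter nonlinear regression of concentration versus copy number.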

[1] = Cytotoxicity test with CellTiter Glo; assay type: cell-based; conditions: human, HepG2.2.15 cells, highest concentration 150 μM, read-out: CC50 values of the compounds of the invention
How it was run: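 HepG2.2.15 cells (3000/well) exposed to serially diluted compound, highest final concentration 150 μM, for 4 days at 37 °C. Viability read by CellTiter Glo, cytotoxicity % taken relative to DMSO controls, and CC50 obtained by four-parameter nonlinear regression.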

| Structure (SMILES) | EC50 (HBV) [nM] | CC50 at 4 days [1] [nM] |
| --- | --- | --- |
| COC(=O)C1=C(CN2CCN3C(=O)N(c4ccc(Oc5ccc(C(=O)NC(C)CO)cc5)cc4)C[C@@H]3C2)NC(c2nccs2)=N[C@H]1c1ccc(F)cc1Cl (stereo partly drawn) [Example 72, (4R)-methyl 4-(2-chloro-4-fluorophenyl)-6-(((8aS)-2-(4-(4-((1-hydroxyprop-2-yl)carbamoyl)phenoxy)phenyl)-3-oxohexahydroimidazo[1,5-a]pyrazin-7(1H)-yl)methyl)-2-(thiazol-2-yl)-1,4-dihydropyrimidine-5-carboxylate] | 21.2 | > 150000 |
| COC(=O)C1=C(CN2CCN3C(=O)N(c4ccc(OC5CCC(C(=O)O)CC5)cc4F)C[C@@H]3C2)NC(c2nccs2)=N[C@H]1c1ccc(F)cc1Cl (stereo partly drawn) [Example 112, 4-(4-((S)-7-(((R)-6-(2-chloro-4-fluorophenyl)-5-(methoxycarbonyl)-2-(thiazol-2-yl)-3,6-dihydropyrimidin-4-yl)methyl)-3-oxohexahydroimidazo[1,5-a]pyrazin-2(3H)-yl)-3-fluorophenoxy)cyclohexane carboxylic acid] | 15.4 | > 150000 |
| COC(=O)C1=C(CN2CCN3C(=O)N(Cc4ccc(Oc5ccc(C#N)cc5)cc4)C[C@@H]3C2)NC(c2nccs2)=N[C@H]1c1ccc(F)cc1Cl [Example 102, (R)-methyl 4-(2-chloro-4-fluorophenyl)-6-(((S)-2-(4-(4-cyanophenoxy)benzyl)-3-oxohexahydroimidazo[1,5-a]pyrazin-7(1H)-yl)methyl)-2-(thiazol-2-yl)-1,4-dihydropyrimidine-5-carboxylate] | 4.2 | > 150000 |
| COC(=O)C1=C(CN2CCN3C(=O)N(c4cc(F)cc(N5CCC(C(=O)O)CC5)c4)C[C@@H]3C2)NC(c2nccs2)=N[C@H]1c1ccc(F)cc1Cl [Example 32, 1-(3-((S)-7-(((R)-6-(2-chloro-4-fluorophenyl)-5-(methoxycarbonyl)-2-(thiazol-2-yl)-3,6-dihydropyrimidin-4-yl)methyl)-3-oxohexahydroimidazo[1,5-a]pyrazin-2(3H)-yl)-5-fluorophenyl)piperidine-4-carboxylic acid] | 6 | > 150000 |
| COC(=O)C1=C(CN2CCN3C(=O)N(c4nc(-c5cccc(C(=O)O)c5)cs4)C[C@@H]3C2)NC(c2nccs2)=N[C@H]1c1ccc(F)cc1Cl [Example 139, 3-(2-((S)-7-(((R)-6-(2-chloro-4-fluorophenyl)-5-(methoxycarbonyl)-2-(thiazol-2-yl)-3,6-dihydropyrimidin-4-yl)methyl)-3-oxohexahydroimidazo[1,5-a]pyrazin-2(3H)-yl)thiazol-4-yl)benzoic acid] | 10.7 | > 150000 |
| COC(=O)C1=C(CN2CCN3C(=O)N(c4cc(F)cc(-c5ccc(C(=O)O)cc5F)c4)C[C@@H]3C2)NC(c2nccs2)=N[C@H]1c1ccc(F)cc1Cl [Example 118, 3′-((S)-7-(((R)-6-(2-chloro-4-fluorophenyl)-5-(methoxycarbonyl)-2-(thiazol-2-yl)-3,6-dihydropyrimidin-4-yl)methyl)-3-oxohexahydroimidazo[1,5-a]pyrazin-2(3H)-yl)-2,5′-difluoro-[1,1′-biphenyl]-4-carboxylic acid] | 8.9 | > 150000 |
| COC(=O)C1=C(CN2CCN3C(=O)N(c4cc(F)cc(-c5ccc(C(=O)O)cc5)c4)C[C@@H]3C2)NC(c2nccs2)=N[C@H]1c1ccc(F)cc1Cl [Example 117, 3′-((S)-7-(((R)-6-(2-chloro-4-fluorophenyl)-5-(methoxycarbonyl)-2-(thiazol-2-yl)-3,6-dihydroprimidin-4-yl)methyl)-3-oxohexahydroimidazo[1,5-a]pyrazin-2(3H)-yl)-5′-fluoro-[1,1′-biphenyl]-4-carboxylic acid] | 18.8 | > 150000 |
| COC(=O)C1=C(CN2CCN3C(=O)N(c4ccc(=O)n(-c5ccc(C(=O)O)cc5F)c4)C[C@@H]3C2)NC(c2nccs2)=N[C@H]1c1ccc(F)cc1Cl [Example 80, 4-(5-((S)-7-(((R)-6-(2-chloro-4-fluorophenyl)-5-(methoxycarbonyl)-2-(thiazol-2-yl)-3,6-dihydropyrimidin-4-yl)methyl)-3-oxohexahydroimidazo[1,5-a]pyrazin-2(3H)-yl)-2-oxopyridin-1(2H)-yl)-3-fluorobenzoic acid] | 15.8 | > 150000 |
| COC(=O)C1=C(CN2CCN3C(=O)N(c4ccc(Oc5ccc(C(=O)N6CCO[C@H](CCC(=O)O)C6)cc5)cc4)C[C@@H]3C2)NC(c2nccs2)=N[C@H]1c1ccc(F)cc1Cl [Example 74, 3-((R)-4-(4-(4-(((S)-7-((R)-6-(2-chloro-4-fluorophenyl)-5-(methoxycarbonyl)-2-(thiazol-2-yl)-3,6-dihydropyrimidin-4-yl)methyl)-3-oxohexahydroimidazo[1,5-a]pyrazin-2(3H)-yl)phenoxy)benzoyl)morpholin-2-yl)propanoic acid] | 30.7 | > 150000 |
| COC(=O)C1=C(CN2CCN3C(=O)N(c4ccc(Oc5ccc(C(=O)NC(C)(C)CO)cc5)cc4)C[C@@H]3C2)NC(c2nccs2)=N[C@H]1c1ccc(F)cc1Cl [Example 68, (R)-methyl 4-(2-chloro-4-fluorophenyl)-6-(((S)-2-(4-(4-((1-hydroxy-2-methylprop-2-yl)carbamoyl)phenoxy)phenyl)-3-oxohexahydroimidazo[1,5-a]pyrazin-7(1H)-yl)methyl)-2-(thiazol-2-yl)-1,4-dihydropyrimidine-5-carboxylate] | 11.1 | > 150000 |
| COC(=O)C1=C(CN2CCN3C(=O)N(CC#Cc4ccc(CO)cc4)C[C@@H]3C2)NC(c2nccs2)=N[C@H]1c1ccc(F)cc1Cl [Example 37, (R)-methyl 4-(2-chloro-4-fluorophenyl)-6-(((S)-2-(3-(4-(hydroxymethyl)phenyl)prop-2-yn-1-yl)-3-oxohexahydroimidazo[1,5-a]pyrazin-7(1H)-yl)methyl)-2-(thiazol-2-yl)-1,4-dihydropyrimidine-5-carboxylate] | 12.1 | > 150000 |
| COC(=O)C1=C(CN2CCN3C(=O)N(c4ccc(Oc5ccc(C(=O)N6CCC(CO)CC6)cc5)cc4)C[C@@H]3C2)NC(c2nccs2)=N[C@H]1c1ccc(F)cc1Cl [Example 60, (R)-methyl 4-(2-chloro-4-fluorophenyl)-6-(((S)-2-(4-(4-(4-(hydroxymethyl)piperidine-1-carbonyl)phenoxy)phenyl)-3-oxohexahydroimidazo[1,5-a]pyrazin-7(1H)-yl)methyl)-2-(thiazol-2-yl)-1,4-dihydropyrimidine-5-carboxylate] | 32.3 | > 150000 |
| COC(=O)C1=C(CN2CCN3C(=O)N(c4cc(F)cc(Oc5ccc(C(=O)O)cc5F)c4)C[C@@H]3C2)NC(c2nccs2)=N[C@H]1c1ccccc1Cl [Example 93, 4-(3-((S)-7-(((R)-6-(2-chlorophenyl)-5-(methoxycarbonyl)-2-(thiazol-2-yl)-3,6-dihydropyrimidin-4-yl)methyl)-3-oxohexahydroimidazo[1,5-a]pyrazin-2(3H)-yl)-5-fluorophenoxy)-3-fluorobenzoic acid] | 21.5 | > 150000 |
| COC(=O)C1=C(CN2CCN3C(=O)N(c4ccc(Sc5ccc(OC(C)C)cc5)cc4)C[C@@H]3C2)NC(c2nccs2)=N[C@H]1c1ccc(F)cc1Cl [Example 105, (R)-methyl 4-(2-chloro-4-fluorophenyl)-6-(((S)-2-(4-((4-isopropoxyphenyl)thio)phenyl)-3-oxohexahydroimidazo[1,5-a]pyrazin-7(1H)-yl)methyl)-2-(thiazol-2-yl)-1,4-dihydropyrimidine-5-carboxylate] | 29 | > 150000 |
| COC(=O)C1=C(CN2CCN3C(=O)N(c4ccc(Oc5ccc(C(=O)N(CCO)CCO)cc5)cc4)C[C@@H]3C2)NC(c2nccs2)=N[C@H]1c1ccc(F)cc1Cl [Example 64, (R)-methyl 6-(((S)-2-(4-(4-(bis(2-hydroxyethyl)carbamoyl)phenoxy)phenyl)-3-oxohexahydroimidazo[1,5-a]pyrazin-7(1H)-yl)methyl)-4-(2-chloro-4-fluorophenyl)-2-(thiazol-2-yl)-1,4-dihydropyrimidine-5-carboxylate] | 24.9 | > 150000 |
| COC(=O)C1=C(CN2CCN3C(=O)N(c4ccc(Oc5ccc(C(=O)O)cc5F)cn4)C[C@@H]3C2)NC(c2nccs2)=N[C@H]1c1ccc(F)cc1Cl [Example 22, 4-((6-((S)-7-(((R)-6-(2-chloro-4-fluorophenyl)-5-(methoxycarbonyl)-2-(thiazol-2-yl)-3,6-dihydropyrimidin-4-yl)methyl)-3-oxohexahydroimidazo[1,5-a]pyrazin-2(3H)-yl)pyridin-3-yl)oxy)-3-fluorobenzoic acid] | 18 | > 150000 |
| COC(=O)C1=C(CN2CCN3C(=O)N(c4ccc(Oc5ccc(C(=O)N6CC(O)C6)cc5)cc4)C[C@@H]3C2)NC(c2nccs2)=N[C@H]1c1ccc(F)cc1Cl [Example 61, (R)-methyl 4-(2-chloro-4-fluorophenyl)-6-(((S)-2-(4-(4-(3-hydroxyazetidine-1-carbonyl)phenoxy)phenyl)-3-oxohexahydroimidazo[1,5-a]pyrazin-7(1H)-yl)methyl)-2-(thiazol-2-yl)-1,4-dihydropyrimidine-5-carboxylate] | 15 | > 150000 |
| COC(=O)C1=C(CN2CCN3C(=O)N(c4nc(-c5ccc(C(=O)O)cc5F)cs4)C[C@@H]3C2)NC(c2nccs2)=N[C@H]1c1ccc(F)cc1Cl [Example 136, 4-(2-((S)-7-(((R)-6-(2-chloro-4-fluorophenyl)-5-(methoxycarbonyl)-2-(thiazol-2-yl)-3,6-dihydropyrimidin-4-yl)methyl)-3-oxohexahydroimidazo[1,5-a]pyrazin-2(3H)-yl)thiazol-4-yl)-3-fluorobenzoic acid] | 20.1 | > 150000 |
